The target of assay [1] is menin/MLL (terbium chelate-labeled menin, FITC-MBM1 peptide) (Homo sapiens (Human), UniProt O00255). In words: Menin/MLL homogenous time-resolved fluorescence (HTRF) assay.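 Further: IC50 from percent inhibition of HTRF signal, normalized between wells without competitor and wells with a saturating competitor that displaces FITC-MBM1 from His-tagged menin.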 The class given is binding. The settings on record: HTRF-30 min incubation IC50, 30 min incubation. (In general: In TR-FRET formats the signal depends on donor and acceptor labels being close together.)
Chain of menin/MLL (terbium chelate-labeled menin, FITC-MBM1 peptide) (O00255 other isoform, or with tags, fused parts or gaps): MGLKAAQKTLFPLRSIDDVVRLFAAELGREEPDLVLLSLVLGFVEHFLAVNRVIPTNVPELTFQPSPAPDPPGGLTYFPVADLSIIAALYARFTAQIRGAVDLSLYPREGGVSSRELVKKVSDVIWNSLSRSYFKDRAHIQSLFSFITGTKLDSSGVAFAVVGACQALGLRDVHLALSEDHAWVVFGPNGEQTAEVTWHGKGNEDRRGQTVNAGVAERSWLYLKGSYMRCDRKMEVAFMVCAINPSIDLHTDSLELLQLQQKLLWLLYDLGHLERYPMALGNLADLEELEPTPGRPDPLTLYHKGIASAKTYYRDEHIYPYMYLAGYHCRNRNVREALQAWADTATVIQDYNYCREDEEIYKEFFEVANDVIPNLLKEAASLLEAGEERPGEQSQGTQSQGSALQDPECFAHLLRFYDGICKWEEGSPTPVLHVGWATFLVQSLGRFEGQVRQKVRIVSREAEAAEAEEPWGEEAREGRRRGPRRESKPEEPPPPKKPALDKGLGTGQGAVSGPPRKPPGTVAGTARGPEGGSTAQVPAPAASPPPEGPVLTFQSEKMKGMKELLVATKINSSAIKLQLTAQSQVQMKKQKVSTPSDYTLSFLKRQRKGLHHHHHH

The subject of another assay is KO-52 cells. In words: Proliferation assay (spheroid growth, 8 days), KO-52 control cell line. The note with it: Homo sapiens, […], read-out: spheroid assay_OneTime KO-52 IC50. The class given is cell-based, human. The procedure: The anti-proliferative effect of menin/MLL protein/protein interaction inhibitor test compounds was assessed in human leukemia cell lines. The cell line MOLM14 harbors a MLL translocation and expresses the MLL fusion protein MLL-AF9, respectively, as well as the wildtype protein from the second allele. OCI-AML3 cells that carry the NPM1c gene mutation were also tested. […] KO-52 was used as a control cell line containing two MLL (KMT2A) wildtype alleles in order to exclude compounds that display general cytotoxic effects.
KO-52 and OCI-AML3 cell lines were propagated in alpha-MEM (Sigma Aldrich) supplemented with 20% heat-inactivated fetal bovine serum (HyClone), 2 mM L-glutamine (Sigma Aldrich) and 50 μg/ml gentamycin (Gibco).
In order to assess the anti-proliferative effects, 200 MOLM14 cells, 200 OCI-AML3 cells or 300 KO-52 cells were seeded in 200 μl media per well in […] round bottom, ultra-low attachment plates (Costar, catalogue number 7007). Cell seeding numbers were chosen based on growth curves to ensure linear growth throughout the experiment. Test compounds were added at different concentrations and the DMSO content was normalized to 0.3%. Cells were incubated for 8 days at 37° C. and 5% CO2. Spheroid like growth was measured in real-time by live-cell imaging (IncuCyteZOOM, Essenbio, 4× objective) acquiring images at day 8. Confluence (%) as a measure of spheroid size was determined using an integrated analysis tool.
In order to determine the effect of the test compounds over time, the confluence in each well as a measure of spheroid size, was calculated. Confluence of the highest dose of a reference compound was used as baseline for the LC (Low control) and the confluence of DMSO treated cells was used as 0% cytotoxicity (High Control, HC).
GraphPad Prism(version 7.00) was used to calculate the IC50. Dose-response equation was used for the plot of % Effect vs Log 10 compound concentration with a variable slope and fixing the maximum to 100% and the minimum to 0%.

For another assay, the system named is MOLM14 cells. Nature of the assay: Proliferation assay (spheroid growth, 8 days), MOLM14.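 Further: spheroid size read as confluence by live-cell imaging, compounds added at a range of concentrations with 0.3% DMSO, DMSO-treated wells = 0%, highest reference dose = low control.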 The class given is cell-based, human. The note with it: Homo sapiens, MOLM-14, […], MOLM14, 8 days; read-out: spheroid assay_OneTime MOLM14 IC50.
A further assay has as its system MEIS1 mRNA. Nature of the assay: MEIS1 mRNA expression assay (Quantigene Singleplex) in MOLM14 cells.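 Further: MEIS1 transcript levels read by probe hybridization and normalized to RPL28 mRNA, with IC50 fitted to fold changes across a rising compound concentration series.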 The note with it: Homo sapiens, MOLM-14, 48 h, 48 hours incubation. The class given is cell-based, human.
In the next assay the test system is OCI-AML3 cells. Nature of the assay: Proliferation assay (spheroid growth, 8 days), OCI-AML3. The note with it: Homo sapiens, OCI-AML-3, […], OCI-AML3, 8 days. The class given is cell-based, human. The procedure, abridged:
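IC50 values derive from day-8 spheroid confluence, normalized between DMSO-treated wells and the highest dose of a reference compound, fitted with a variable slope. Cells grew 8 days at 37° C under a compound concentration series in 0.3% DMSO.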

Counter-ions that a name gives are not always drawn. Some results are limits rather than exact numbers.

Turning to `CCN(C(=O)c1cc(F)ccc1Oc1nncnc1N1CCC2(C1)CN([C@H](CCN(C)CCCO)C(C)C)C2)C(C)C` (single isomer, unassigned) [Compound 274, (*R)—N-ethyl-5-fluoro-2-((5-(2-(1-((3-hydroxypropyl)(methyl)amino)-4-methylpentan-3-yl)-2,6-diazaspiro[3.4]octan-6-yl)-1,2,4-triazin-6-yl)oxy)-N-isopropylbenzamide], the IC50 – broadly, the concentration that inhibits the measured activity by half – in assay [1] was 0.38 nM; with KO-52 cells, more than 15 µM; in the assay with MOLM14 cells, 200 nM; in the assay on MEIS1 mRNA, 230 nM; in the assay with OCI-AML3 cells it was 640 nM.

As to `CCN(C)C[C@@H](O)C[C@H](C(C)C)N1CC2(CCN(c3ncnnc3Oc3ccc(F)cc3C(=O)N(C(C)C)C(C)C)C2)C1` (single isomer, unassigned) [Compound 391, 2-((5-(2-((3*R,5*S)-6-(ethyl(methyl)amino)-5-hydroxy-2-methylhexan-3-yl)-2,6-diazaspiro[3.4]octan-6-yl)-1,2,4-triazin-6-yl)oxy)-5-fluoro-N,N-diisopropylbenzamide fumarate], the IC50 in assay [1] was 0.9 nM; with KO-52 cells it was more than 15 µM; in the assay with MOLM14 cells, 490 nM; in the assay on MEIS1 mRNA it was 160 nM; with OCI-AML3 cells, 2100 nM.

As for `CCN(C(=O)c1cc(F)ccc1Oc1nncnc1N1CCC2(C1)CN([C@H](CCCCN(C)C)C(C)C)C2)C(C)C` (single isomer, unassigned) [Compound 211], the IC50 was 0.35 nM in assay [1]; more than 15 µM with KO-52 cells; 150 nM in the assay on MOLM14 cells; 110 nM with MEIS1 mRNA; 97 nM in the assay with OCI-AML3 cells.

Regarding `CCN(C(=O)c1cc(F)ccc1Oc1nncnc1N1CCC2(C1)CN(C(CCCNCC(C)(C)OC)C(C)C)C2)C(C)C` (centres unmarked) [Compound 69, N-ethyl-5-fluoro-N-isopropyl-2-((5-(2-(6-((2-methoxy-2-methylpropyl)amino)-2-methylhexan-3-yl)-2,6-diazaspiro[3.4]octan-6-yl)-1,2,4-triazin-6-yl)oxy)benzamide], the IC50 in assay [1] came out at 0.099 nM; with KO-52 cells it was 7.18 µM; in the assay with MOLM14 cells, 20 nM; with MEIS1 mRNA, 16 nM; with OCI-AML3 cells, 87 nM.

For the compound `CCN(C(=O)c1cc(F)ccc1Oc1nncnc1N1CCC2(C1)CN([C@H](C[C@H](O)CN(C)CCOC)C(C)C)C2)C(C)C` (single isomer, unassigned) [Compound 352, N-ethyl-5-fluoro-2-((5-(2-((3*R,5S)-5-hydroxy-6-((2-methoxyethyl)(methyl)amino)-2-methylhexan-3-yl)-2,6-diazaspiro[3.4]octan-6-yl)-1,2,4-triazin-6-yl)oxy)-N-isopropylbenzamide fumarate], the IC50 in assay [1] was 0.077 nM; in the assay with KO-52 cells it was more than 15 µM; in the assay with MOLM14 cells it was 18 nM; in the assay on MEIS1 mRNA, 130 nM; in the assay on OCI-AML3 cells it was 150 nM.

For `CCN(C)CCC[C@@H](C(C)C)N1CC2(CCN(c3ncnnc3Oc3ccc(F)cc3C(=O)N(CC)C(C)C)C2)C1` (single isomer, unassigned) [Compound 133, (*S)—N-ethyl-2-((5-(2-(6-(ethyl(methyl)amino)-2-methylhexan-3-yl)-2,6-diazaspiro[3.4]octan-6-yl)-1,2,4-triazin-6-yl)oxy)-5-fluoro-N-isopropylbenzamide fumarate], the IC50 is 2.13 nM in assay [1]; more than 15 µM with KO-52 cells; more than 940 nM in the assay with MOLM14 cells; more than 1000 nM in the assay on MEIS1 mRNA; 3500 nM in the assay on OCI-AML3 cells.

As to `CCN(C(=O)c1cc(F)ccc1Oc1nncnc1N1CCC2(C1)CN([C@H](CCCN(C)[C@H](C)COC)C(C)C)C2)C(C)C` [Compound 154, N-ethyl-5-fluoro-N-isopropyl-2-((5-(2-((R)-6-(((R)-1-methoxypropan-2-yl)(methyl)amino)-2-methylhexan-3-yl)-2,6-diazaspiro[3.4]octan-6-yl)-1,2,4-triazin-6-yl)oxy)benzamide fumarate], the IC50 in assay [1] is 0.051 nM; with KO-52 cells it was more than 15 µM; in the assay with MOLM14 cells, 22 nM; in the assay on MEIS1 mRNA, 27 nM; in the assay on OCI-AML3 cells it was 67 nM.

For the compound `CCN(C(=O)c1cc(F)ccc1Oc1nncnc1N1CCC2(C1)CN([C@H](CCCNCC(CO)OC)C(C)C)C2)C(C)C` (stereo partly drawn) [Compound 168, N-ethyl-5-fluoro-2-((5-(2-((3R)-6-((3-hydroxy-2-methoxypropyl)amino)-2-methylhexan-3-yl)-2,6-diazaspiro[3.4]octan-6-yl)-1,2,4-triazin-6-yl)oxy)-N-isopropylbenzamide], the IC50 is 0.1 nM in assay [1]; more than 15 µM in the assay with KO-52 cells; 49 nM in the assay with MOLM14 cells; 74 nM in the assay on MEIS1 mRNA; 370 nM in the assay with OCI-AML3 cells.

Turning to `CCN(C(=O)c1cc(F)ccc1Oc1nncnc1N1CCC2(C1)CN([C@H](C[C@@H](O)CN(C)CCOC)C(C)C)C2)C(C)C` (single isomer, unassigned) [Compound 356, N-ethyl-5-fluoro-2-((5-(2-((3*R,5R)-5-hydroxy-6-((2-methoxyethyl)(methyl)amino)-2-methylhexan-3-yl)-2,6-diazaspiro[3.4]octan-6-yl)-1,2,4-triazin-6-yl)oxy)-N-isopropylbenzamide fumarate], the IC50 is 0.053 nM in assay [1]; more than 15 µM in the assay on KO-52 cells; 7 nM in the assay on MOLM14 cells; approximately 8.2 nM with MEIS1 mRNA; 46 nM with OCI-AML3 cells.

Regarding `CCN(C(=O)c1cc(F)ccc1Oc1nncnc1N1CCC2(C1)CN([C@H](CCNCC(N)=O)C(C)C)C2)C(C)C` (single isomer, unassigned) [Compound 230, (*R)-2-((5-(2-(1-((2-amino-2-oxoethyl)amino)-4-methylpentan-3-yl)-2,6-diazaspiro[3.4]octan-6-yl)-1,2,4-triazin-6-yl)oxy)-N-ethyl-5-fluoro-N-isopropylbenzamide], the IC50 is approximately 0.88 nM in assay [1]; more than 15 µM with KO-52 cells; more than 940 nM in the assay with MOLM14 cells; approximately 940 nM with MEIS1 mRNA; 1160 nM in the assay with OCI-AML3 cells.

As for `CCN(C(=O)c1cc(F)ccc1Oc1nncnc1N1CCC2(C1)CN([C@H](CCCNC(COC)COC)C(C)C)C2)C(C)C` [Compound 159, (R)-2-((5-(2-(6-((1,3-dimethoxypropan-2-yl)amino)-2-methylhexan-3-yl)-2,6-diazaspiro[3.4]octan-6-yl)-1,2,4-triazin-6-yl)oxy)-N-ethyl-5-fluoro-N-isopropylbenzamide fumarate], the IC50 in assay [1] is 0.1 nM; with KO-52 cells, 6.3 µM; in the assay on MOLM14 cells, 10 nM; in the assay with MEIS1 mRNA, approximately 17 nM; with OCI-AML3 cells, 12 nM.

For the compound `CCN(C(=O)c1cc(F)ccc1Oc1nncnc1N1CCC2(C1)CN([C@H](CCCNCC(C)(C)OC)C(C)C)C2)C(C)C` [Compound 135, (R)-N-ethyl-5-fluoro-N-isopropyl-2-((5-(2-(6-((2-methoxy-2-methylpropyl)amino)-2-methylhexan-3-yl)-2,6-diazaspiro[3.4]octan-6-yl)-1,2,4-triazin-6-yl)oxy)benzamide fumarate], the IC50 in assay [1] was 0.057 nM; with KO-52 cells it was 9.69 µM; with MOLM14 cells, 13 nM; with MEIS1 mRNA, 16 nM; in the assay with OCI-AML3 cells, 230 nM.

With `CCN(C(=O)c1cc(F)ccc1Oc1nncnc1N1CCC2(C1)CN([C@H](CCCN(C)CC(C)C(=O)N(C)C)C(C)C)C2)C(C)C` (stereo partly drawn) [Compound 181, 2-((5-(2-((3R)-6-((3-(dimethylamino)-2-methyl-3-oxopropyl)(methyl)amino)-2-methylhexan-3-yl)-2,6-diazaspiro[3.4]octan-6-yl)-1,2,4-triazin-6-yl)oxy)-N-ethyl-5-fluoro-N-isopropylbenzamide fumarate], the IC50 in assay [1] stood at 0.079 nM; with KO-52 cells it was 14 µM; in the assay on MOLM14 cells, 23 nM; in the assay with MEIS1 mRNA it was 17 nM; with OCI-AML3 cells it was 44 nM.

The values above are taken from US12473295B2, “Substituted straight chain spiro derivatives” (Janssen Pharmaceutica NV, priority 2019, dated 2025).
